Experimental data from patent US8431617B2, “Use of resveratrol for the preparation of a medicament useful for the treatment of influenza virus infections” (Sigma-Tau Industrie Farmaceutiche Riunite S.p.A., priority 2002, dated 2013).

What was measured:
MDCK cells [1] = test: Toxicity of resveratrol on confluent monolayers of uninfected MDCK cells (cell count, Trypan Blue viability)
Experimental: The cells were cultured in T-25 vials or in 6- and 24-well Libno plates in RPMI culture medium added with L-glutamine, penicillin-streptomycin and 10% foetal calf serum (FCS) and maintained at 37° C. in a 5% CO2 atmosphere. The confluent cell monolayers were detached with a 0.25% trypsin solution, centrifuged and reseeded in fresh medium. The cell count was done using a haemocytometer and cell viability was determined by means of exclusion with Trypan Blue viability staining (0.02%).
For the purposes of determining the possible degree of toxicity on the MDCK cells, the latter were treated with resveratrol after the confluence of the monolayer, at various concentrations (5, 10, 15, 20 and 40 μg/ml).

MDCK cells [2] = test: Apoptosis in MDCK cells by FACS after labelling with propidium iodide; format: cell-based, dog; details: for apoptosis: antiviral doses of the drug
Experimental: As regards the analysis of apoptosis. MDCK cells were infected with the virus PR8. After viral adsorption, the cells were treated with resveratrol at various concentrations (5, 10, 15 and 20 μg/ml). Twenty-four hours after infection, the cells were detached using a 0.25% trypsin solution and then centrifuged at 1,200 rpm for 5 min, The precipitate thus obtained was analysed by means of the FACS technique after labelling with propidium iodide.
For the purposes of assessing whether the induction of cell death by apoptosis was involved in the antiviral effect of reservatrol, MDCK cells were infected or not with the virus and treated with the substance at the various concentrations. Cell death by apoptosis was evaluated by FACS after labelling with propidium iodide. […] The infection in itself induced apoptosis in 12% of infected cells. Although the addition of increasing doses caused an increase in the mortality, no significant difference was observed between infected cells and uninfected cells treated with antiviral doses of the drug (35 and 37% apoptosis, respectively).

influenza virus A/PR = test: Survival of mice infected intranasally with influenza virus A/PR; format: in vivo, Balb/c AnCrIBR mice; details: 1 mg/kg, intraperitoneal, daily for 7 days
Experimental: Four-week-old female inbred Balb/c AnCrIBR mice were used. Resveratrol, dissolved in PBS, was administered to the animals via the intraperitoneal route at various times after infection with the influenza virus. The reservatrol concentrations were chosen so as to obtain a range of doses in the animals' blood similar to the effective range in vitro (10 to 20 μg/ml).
The mice were inoculated intranasally (i.n.) with a suspension containing the influenza virus A/PR at a multiplicity of infection of 2 HAU/mouse, after light anaesthesia with ether. On the basis of previous experimental data, the influenza virus at this multiplicity of infection produces haemorrhagic pneumonia that leads to the death of 80% of the animals by one week after infection. For the purposes of monitoring the infection trend, both virological and immunological parameters were monitored in addition to studying survival curves.
The efficacy of resveratrol was studied in an experimental influenza virus infection model in the mouse. In this model, intranasal inoculation of the virus causes severe haemorrhagic pneumonia which leads to the death of the animals within 7 to 10 days of infection. The experimental design envisages evaluation of the therapeutic efficacy of the study substance, as assessed on the basis of survival of the infected animals. […]

viral proteins NP and M = test: Localisation of proteins NP and M in infected MDCK cells by immunofluorescence; format: cell-based, influenza virus A/PR8/34, subtype H1N1; details: 20 μg/ml
Experimental: Viral replication was also assessed with analysis of the occurrence of viral antigens on the surface of the infected cell by means of immunofluorescence. Analysis of viral proteins by immunofluorescence was done with a fluorescence microscope using a filter emitting in the green (FITC) (lens 100×). MDCK cells, cultured on cover slides for 24 h were infected and, 18 h after infection, were fixed with methanol-acetone 1:1 at 4° C. for 15 min. Later, the cells were washed twice in PBS and permeabilised with a 0.1% solution of PBS-TRITON for 5 min. Blockade of the aspecific sites was done with 1% milk dissolved in PBS for 30 min at ambient temperature. Later, specific monoclonal antibodies (mouse anti-influenza NP and mouse anti-influenza M) to viral proteins were added, diluted 1:50 in PBS for 30 min at ambient temperature. The primary antibody was detected with a secondary antibody conjugated to fluorescein (anti-mouse FITC, Sigma). […]

[3] = tested on: mRNAs for the viral proteins HA and M; test: PCR for messenger RNAs of late viral proteins in infected MDCK cells; format: cell-based, influenza virus A/PR8/34, subtype H1N1
[4] = tested on: influenza virus A/PR8/34, subtype H1N1 (virus PR8); test: Replication of influenza virus PR8 in MDCK cells, virus released in supernatant titrated as haemagglutinating units; format: cell-based
MDCK cells [5] = test: Assay of intracellular glutathione (GSH) in MDCK cells by HPLC; format: cell-based, dog
Experimental: The glutathione assay has been performed as a result of the formation of S-carboxymethyl-derivatives of free thiols with iodoacetic acid followed by conversion of the NH2 terminal groups to 2,4-dinitrophenyl derivatives after the reaction of 1-fluoro-2,4-dinitrobenzene (Anal. Biochemn., 106, 55-62, 1980).
The MDCK cells were detached by means of the scraping technique. Later, the cells were centrifuged at 1,200 rpm for 5 minutes. The cells were washed twice in PBS and the precipitate, obtained after centrifuging, was resuspended in 200 μl of buffer. The cell lysates, obtained with repeated cycles of freezing and thawing, were deproteinised by means of precipitation in 5% metaphosphoric acid. After centrifuging at 22,300 g, the low-molecular-weight thiols present in the supernatant were derivatised with 10% iodoacetic acid v/v and neutralised with NaHCO3 in powder form. After 1 h of incubation in the dark a solution of 1.5% 1-chloro-2,4-dinitrobenzene v/v was added (1.5 ml/98.5 ml of absolute ethanol). […] The protein concentration was calculated using the Lowry method (Biol. Chem., 193, 265-75, 1951). […] The reducing reaction product is detected by the formation of stained compounds by reaction with the aromatic amino acids of the proteins. […]

[6] = tested on: influenza virus PR8 viral proteins (H0-H1, H2, M, NP, P); test: Synthesis of viral proteins in infected MDCK cells by Western blotting; format: cell-based, influenza virus A/PR8/34, subtype H1N1; details: 15 and 20 μg/ml
Experimental: Viral proteins were analysed by Western blotting. At different times after viral infection, the cells were lysed using special lysis buffers. Equal quantities of proteins were then loaded onto polyacrylamide gel in SDS. After electrophoresis, the proteins were transferred onto a nitrocellulose membrane and treated with anti-influenza polyclonal antibody. After incubation and suitable washings, the filters were treated with a second antibody conjugated to peroxidase and the viral proteins were highlighted by means of the chemiluminescence technique (ECL), using a peroxidase substrate (luminol) which, on reacting with the enzyme, emits a light and makes an impression on the autoradiography plate. The cells were treated with resveratrol at various concentrations (5, 10, 15 and 20 μg/ml). To allow better imaging of the viral proteins, the electrophoresis run was done using a 10% polyacrylamide gel (FIG. 7A) and gradient gel (FIG. 7B).

In the case of 3,4,5-trihydroxystilbene [resveratrol], the “toxic effects on uninfected cells” value (MDCK cells [1]; 20 μg/ml) is reported as “without any toxic effects on the uninfected cells being detected”, the “toxic effects / cell mortality” value (MDCK cells [1]; 40 μg/ml) is reported as “toxic effects were observed with an increase in cell mortality” and the “morphological alterations of the cells” value (MDCK cells [1]; 10-20 μg/ml) is reported as “no morphological alterations of the cells were observed”. For the same substance, the cell number (MDCK cells [1]; 10-20 μg/ml, confluent monolayer, uninfected) was “a slight reduction in cell number was observed”, the apoptosis (MDCK cells [2]; infected cells) was 35% and the “cell death by apoptosis” value (MDCK cells [2]; uninfected cells, 5 μg/ml) was 8%. The “cell death by apoptosis” value (MDCK cells [2]; uninfected cells, 20 μg/ml) was 32%, the apoptosis (MDCK cells [2]; uninfected cells) was 37% and the “mortality versus untreated animals” value (influenza virus A/PR) was “significantly reduced the mortality”. The “animals that survived the infection” value (influenza virus A/PR; 2 HAU/mouse i.n.) was 60%, the “localisation of protein NP” value (viral proteins NP and M) was “the NP is retained in the nucleus” and the “protein M expression” value (viral proteins NP and M) was “significantly inhibited”. For the same substance, the “release of messenger RNAs for the late viral proteins (HA and M)” value ([3]; 20 μg/ml, evaluated 8 hours after infection) was “causes a delay in the release of messenger RNAs”, the “synthesis of the mRNAs for HA and M” value ([3]; 20 h after infection) was “not affected by treatment with resveratrol” and the “time of addition after infection at which viral replication was significantly inhibited” value ([4]; 20 μg/ml, added 0, 3, 6 and 9 h after infection, HAU/ml 24 h after infection) was ≤ 3 h. The “duration of treatment needed for inhibition of replication” value ([4]; 20 μg/ml, added immediately after infection, removed at 0, 3, 6, 9 and 24 h) was “at least 9 hours”, the “reduction of viral titre compared to infected and untreated controls” value ([4]; 20 μg/ml, added post-infection, MDCK cells, 0.2 m.o.i.) was 87% and the “viral replication after 24 h, treatment only during viral adsorption” value ([4]; 20 μg/ml, for one hour at 37° C. during adsorption, then removed) was “comparable to the replication obtained in the control cells”. The viral replication ([4]; 40 μg/ml) was “viral replication was completely blocked”, the “viral replication, dose dependence” value ([4]; added post-infection, 1-40 μg/ml, HAU 24 and 48 h after infection) was “inhibited viral replication in a dose-dependent manner” and the “reversibility of antiviral activity” value ([4]; on discontinuing the treatment) was “not reversible on discontinuing the treatment”. For the same substance, the “viral replication after direct incubation of the virus with the substance” value ([4]; virus incubated with 40 μg/ml for one hour at 37° C., diluted 1:500, then used for infecting cells) was “no reduction in viral replication was observed”, the “GSH levels in infected cells” value (MDCK cells [5]; infected MDCK cells, 24 h after infection) was “did not restore the GSH levels reduced by the infection” and the “intracellular GSH levels compared to untreated cells” value (MDCK cells [5]; uninfected MDCK cells) was “produced a reduction in intracellular GSH levels”. The “expression of early nucleocapside proteins (NP and P)” value [6] was “inhibited, though to a lesser extent than that of the late proteins” and the “synthesis of late haemoagglutinin (H0-H1, H2) and matrix proteins (M)” value [6] was “almost totally inhibited”.
